{
  "source": "paper PMC3465084",
  "about": "(Journal of medicinal chemistry, 2012)",
  "key": {"[1]": {"system": "CD36 scavenger receptor", "assay": "Competition for binding of CuOxLDL to the CD36 scavenger receptor", "conditions": "Figure S1, Supporting Information"}, "[2]": {"assay": "Stability in aqueous solution", "format": "physicochemical"}, "[3]": {"system": "J774 murine macrophages", "assay": "CD36 Macrophage Receptor Binding Competition Assay", "conditions": "competition with OxLDL binding"}, "[4]": {"system": "macrophages", "conditions": "at the concentrations used, even at room temperature for up to 72 hours; cell number or protein content, time course studies of cell function (data not shown)"}, "[5]": {"assay": "Water solubility", "format": "physicochemical"}, "[6]": {"system": "mAb E06", "assay": "Binding of mAb E06 to compound 9", "conditions": "Figure S2, Supporting Information"}},
  "data": [
    {"molecule": "CCCCCCCCCCCCCCCC(=O)OC[C@H](COP(=O)([O-])OCC[N+](C)(C)C)OC(=O)CCCCN(C)CCCC[C@H](NC(=O)[C@@H](NC(=O)CNC(=O)[C@@H](NC(C)=O)[C@@H](C)O)[C@@H](C)O)C(=O)NCC(=O)NCC(=O)O", "note": "[Compound 9, (4S,10S,13S,25R)-13-((2-((carboxymethyl)amino)-2-oxoethyl)carbamoyl)-4,10-bis((R)-1-hydroxyethyl)-18-methyl-2,5,8,11,23-pentaoxo-25-((palmitoyloxy)methyl)-24-oxa-3,6,9,12,18-pentaazahexacosan-26-yl-(2-(trimethylammonio)-ethyl) phosphate]", "values": [
      {"measurement": "competition for the binding of CuOxLDL to the CD36 scavenger receptor (in words)", "setting": "[1]", "value": "competes with high affinity"},
      {"measurement": "stability in aqueous solution (in words)", "setting": "[2]", "value": "stable"},
      {"measurement": "binding to macrophage scavenger receptors (in words)", "setting": "[3]", "value": "binds to macrophage scavenger receptors"},
      {"measurement": "impact on viability of macrophages", "setting": "[4]", "value": "no impact"},
      {"measurement": "water solubility (in words)", "setting": "[5]", "value": "water soluble"},
      {"measurement": "binding of mAb E06 (in words)", "setting": "[6]", "value": "specifically binds"}
    ]}
  ]
}
